{"source": "patent US20250205195A1", "about": "“BENZYLOXY-BENZYLAMINYL AMINO ACID DERIVATIVE FOR ADJUSTING TSLP/TSLPR SIGNAL TRANSMISSION” (AMTIXBIO CO., LTD., priority 2021, published 2025)", "test_system": "TSLP", "test": "TNF-α-induced TSLP in HaCaT cells (ELISA)", "assay_type": "cell-based, human", "conditions": "HaCaT culture supernatant, TNF-α stimulated, 1 h pretreatment, equal amounts of compounds", "experimental": "Human keratinocyte HaCaT cells (obtained from the Korean Cell Line Bank) were seeded in a 12-well plate at an initial density of 2×10^5 cells/well and cultured at 37° C. for 16 to 24 hours. FK506 (Sigma), compounds 27 and 29 of the present invention were then added to the HaCaT cell culture medium at final concentrations of 0, 1, 2, 4, and 8 µg/mL, and the cells were cultured at 37° C. for 1 hour. Next, to induce TSLP, the culture medium was treated with TNF-α (Sigma-Aldrich, USA) to a final concentration of 100 ng/mL, and the cells were cultured for an additional 24 hours at 37° C. The culture supernatant was collected, and the amount of induced TSLP from HaCaT cells was determined using an ELISA kit (R&D Systems, USA) according to the manufacturer's instructions. […] Under the same conditions, to compare the TSLP reduction efficiency R.R. (Reduction rate) of compound 27, positive control compound and compound 29, equal amounts of compounds 27, 29 and FK506 (Sigma-Aldrich, USA) were pretreated for 1 hour. The amount of TSLP released into the culture supernatant from HaCaT cells stimulated by TNF-α was quantitatively analyzed and presented in Table 3 and FIG. 3 (c)."}
{"smiles": "CCC(NC)C(=O)NCc1ccc(OCc2ccc(Cl)cc2)cc1", "note": "(racemic) [Compound 29, (R)/(S)—N-(4-((4-chlorobenzyl)oxy)benzyl)-2-(methylamino)butanamide]", "values": [{"measurement": "R.R (Reduction rate) of TSLP", "result": 58, "unit": "%"}, {"measurement": "TSLP", "result": 210, "unit": "ng/mL"}]}
